This is an account of results in ChEMBL document CHEMBL4261651, “Probing the ligand preferences of the three types of bacterial pantothenate kinase” (Bioorg Med Chem, 2018).

Calls of active or inactive are those of the source. No cut-off for these calls is given here. Some results are limits rather than exact numbers.

For test [1], the system named is Escherichia coli. The experiment in a line: Inhibition of N-terminal His6-tagged Escherichia coli PanK1 expressed in Escherichia coli BL21(DE3) cells at >= 100 uM using pantothenate as substrate in presence of ATP by pyruvate kinase/lactate dehydrogenase enzyme coupled assay.
Test [2] addresses T1, Type III pantothenate kinase (Pseudomonas aeruginosa (strain ATCC 15692 / DSM 22644 / CIP 104116 /JCM 14847 / LMG 12228 / 1C / PRS 101 / PAO1)) (UniProt Q9HWC1).
T1 sequence (whole entry): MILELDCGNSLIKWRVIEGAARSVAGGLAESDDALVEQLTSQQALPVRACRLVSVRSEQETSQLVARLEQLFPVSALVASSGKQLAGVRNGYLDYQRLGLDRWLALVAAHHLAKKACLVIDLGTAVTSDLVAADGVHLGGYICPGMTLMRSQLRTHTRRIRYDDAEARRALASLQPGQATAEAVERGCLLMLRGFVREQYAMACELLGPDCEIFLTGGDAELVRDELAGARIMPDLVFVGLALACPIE
Kind of test: Inhibition of Pseudomonas aeruginosa PanK3 expressed in Escherichia coli BL21 Rosetta(DE3) cells at >= 100 uM using pantothenate as substrate in presence of ATP by pyruvate kinase/lactate dehydrogenase enzyme coupled assay.

The target of test [3] is T2, Type II pantothenate kinase (Staphylococcus aureus (strain MSSA476)) (UniProt Q6G7I0).
T2 sequence (whole entry): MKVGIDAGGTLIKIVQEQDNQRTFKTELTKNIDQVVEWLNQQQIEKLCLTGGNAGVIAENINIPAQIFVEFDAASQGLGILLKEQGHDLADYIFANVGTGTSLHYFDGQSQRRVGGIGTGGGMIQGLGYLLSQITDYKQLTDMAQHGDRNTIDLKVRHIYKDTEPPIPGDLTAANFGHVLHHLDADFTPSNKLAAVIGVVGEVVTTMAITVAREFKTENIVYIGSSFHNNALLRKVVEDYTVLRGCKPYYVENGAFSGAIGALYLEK
Kind of test: Inhibition of N-terminal His6-tagged Staphylococcus aureus PanK2 expressed in Escherichia coli BL21(DE3) cells at >= 100 uM using pantothenate as substrate in presence of ATP by pyruvate kinase/lactate dehydrogenase enzyme coupled assay.

Test [4] addresses T2, Type II pantothenate kinase (Staphylococcus aureus (strain MSSA476)). The experiment in a line: Substrate activity at N-terminal His6-tagged Staphylococcus aureus PanK2 expressed in Escherichia coli BL21(DE3) cells assessed as ratio of Kcat to Km in presence of ATP/NADH by pyruvate kinase/lactate dehydrogenase enzyme coupled assay.
Test [5] relates to Escherichia coli. The experiment in a line: Growth inhibition of Escherichia coli ATCC 25922 after 16 hrs by broth microdilution method. It counts as functional, organism-based.
For another test, the system named is Enterococcus faecium. The experiment in a line: Growth inhibition of Enterococcus faecium ATCC 19434 after 16 hrs by broth microdilution method. It is filed as functional, organism-based.
A further test relates to Pseudomonas aeruginosa. Kind of test: Growth inhibition of Pseudomonas aeruginosa ATCC 27853 after 16 hrs by broth microdilution method. It counts as functional, organism-based.
For test [6], the system named is Escherichia coli. Kind of test: Substrate activity at N-terminal His6-tagged Escherichia coli PanK1 expressed in Escherichia coli BL21(DE3) cells assessed as Km in presence of ATP/NADH by pyruvate kinase/lactate dehydrogenase enzyme coupled assay.
The subject of test [7] is Escherichia coli. The experiment in a line: Substrate activity at N-terminal His6-tagged Escherichia coli PanK1 expressed in Escherichia coli BL21(DE3) cells assessed as Kcat in presence of ATP/NADH by pyruvate kinase/lactate dehydrogenase enzyme coupled assay.
For test [8], the system named is Escherichia coli. Kind of test: Substrate activity at N-terminal His6-tagged Escherichia coli PanK1 expressed in Escherichia coli BL21(DE3) cells assessed as ratio of Kcat to Km in presence of ATP/NADH by pyruvate kinase/lactate dehydrogenase enzyme coupled assay.

For the molecule `CCCc1cn(CCCNC(=O)[C@H](O)C(C)(C)CO)nn1`, the inhibition result (in the test with Escherichia coli [1]; in [2]; in test [3]) was “inactive” in each case. The Ratio in test [4] is 21 mM⁻¹ s⁻¹. The “growth inhibition (GI)” value in the test with Escherichia coli [5], in the test with Enterococcus faecium and with Pseudomonas aeruginosa was “inactive” each time.

For the molecule `CCCCn1cc(CCNC(=O)[C@H](O)C(C)(C)CO)nn1`, the inhibition entry (with Escherichia coli [1]; in test [2]; in [3]) was “inactive” each time. In the test with Escherichia coli [6], the Km (usually the concentration of substrate that gives half-maximal velocity) is 50 µM. For the same molecule, the kcat (usually the maximal rate divided by the concentration of active sites) in the test with Escherichia coli [7] was determined as 1.08 s⁻¹. The Ratio in the test on Escherichia coli [8] came out at 22 mM⁻¹ s⁻¹; in test [4] it was 115 mM⁻¹ s⁻¹. The “growth inhibition (GI)” value with Escherichia coli [5], with Enterococcus faecium and in the test on Pseudomonas aeruginosa was “inactive” each time.

Regarding `CCCCCCCNCC(C)(C)[C@@H](O)C(=O)NCCC(=O)O`, the “growth inhibition (GI)” value in the test with Escherichia coli [5], with Enterococcus faecium and with Pseudomonas aeruginosa was “inactive” throughout.

Consider `COC(=O)CCCNC(=O)[C@H](O)C(C)(C)CO`, for which the inhibition entry (in the test with Escherichia coli [1]; in test [2]; in test [3]) was “inactive” throughout. In addition, the Ratio in test [4] was 7.1 mM⁻¹ s⁻¹. The “growth inhibition (GI)” value with Escherichia coli [5], with Enterococcus faecium and in the test on Pseudomonas aeruginosa was “inactive” in each case.

With `CO[C@@H](C(=O)NCCC(=O)O)C(C)(C)CO`, the inhibition result (with Escherichia coli [1]; in test [2]; in [3]) was “inactive” in each case. Moreover, the Km with Escherichia coli [6] was 16 µM. Further, the kcat with Escherichia coli [7] is 0.49 s⁻¹. Moreover, the Ratio in the test on Escherichia coli [8] is 31 mM⁻¹ s⁻¹. Besides, the “growth inhibition (GI)” value in the test with Escherichia coli [5], with Enterococcus faecium and in the test with Pseudomonas aeruginosa was “inactive” each time.

For the molecule `CC(C)(CO)[C@@H](O)C(=O)NCC(=O)O`, the inhibition entry (with Escherichia coli [1]; in [2]; in test [3]) was “inactive” each time. In addition, the Michaelis constant (Km) with Escherichia coli [6] is 62 µM. Moreover, the kcat in the test with Escherichia coli [7] was 1.59 s⁻¹. For the same molecule, in the test on Escherichia coli [8], the Ratio amounted to 26 mM⁻¹ s⁻¹. Further, the “growth inhibition (GI)” value with Escherichia coli [5], in the test on Enterococcus faecium and in the test with Pseudomonas aeruginosa was “inactive” throughout.

For `COC(=O)CNC(=O)[C@H](O)C(C)(C)CO`, the inhibition result (in the test with Escherichia coli [1]; in [2]; in test [3]) was “inactive” throughout. The Km with Escherichia coli [6] amounted to 156 µM. The kcat in the test on Escherichia coli [7] was 0.91 s⁻¹. Further, the Ratio in the test with Escherichia coli [8] came out at 5.8 mM⁻¹ s⁻¹; in [4] it was 115 mM⁻¹ s⁻¹. In addition, the “growth inhibition (GI)” value with Escherichia coli [5], with Enterococcus faecium and with Pseudomonas aeruginosa was “inactive” each time.

`CCCCCNC(=O)CCNC(=O)[C@H](O)C(C)(C)CO`: the Ratio in [4] is greater than 290 mM⁻¹ s⁻¹.

`CCCCCn1cc(CNC(=O)[C@H](O)C(C)(C)CO)nn1`: the inhibition entry (in the test on Escherichia coli [1]; in test [2]; in test [3]) was “inactive” throughout. Moreover, the Ratio in test [4] came out at 54 mM⁻¹ s⁻¹. Further, the “growth inhibition (GI)” value in the test with Escherichia coli [5], with Enterococcus faecium and in the test on Pseudomonas aeruginosa was “inactive” in each case.

Regarding `CC(=O)CC(=O)OCC(C)(C)[C@@H](O)C(=O)NCCC(=O)O`, the “growth inhibition (GI)” value in the test on Escherichia coli [5], with Enterococcus faecium and in the test on Pseudomonas aeruginosa was “inactive” each time.

For `COCC(C)(C)[C@@H](OC)C(=O)NCCC(=O)O`, the “growth inhibition (GI)” value in the test with Escherichia coli [5], with Enterococcus faecium and in the test on Pseudomonas aeruginosa was “inactive” each time.

As to `CCCNCC(C)(C)[C@@H](O)C(=O)NCCC(=O)O`, the “growth inhibition (GI)” value with Escherichia coli [5], with Enterococcus faecium and with Pseudomonas aeruginosa was “inactive” in each case.
